Among the data in PubChem BioAssay AID2005 (Sanford-Burnham Center for Chemical Genomics, 2009) are inhibition values, retold here.

The source made the active and inactive calls.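 Rule for the calls: active = plate Z score at or below -3, or inhibition of at least 30% at 20 µM; inactive = the rest.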

This assay in a line: compounds lowering EGFP fluorescence in F442A cells, dose response, counter-screen for p/CIP destabilizer project (AID 2005).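 Note: cells express EGFP alone from a CMV promoter as a counter screen for p/CIP-EGFP.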 The settings on record: F442A EGFP cells, EGFP fluorescence, 16 h, stronger effect = higher value. Background: The purpose of a counterscreen is to sort out artefacts and off-target activity.

For `O=C(c1ccccc1F)N(Cc1cccnc1)Cc1cc2cc3c(cc2[nH]c1=O)OCCO3`, the inhibition (usually the change of the read-out against control, counted positive when it falls) (EGFP decrease, at 10 µM) turned out to be 4.2% and the inhibition (at 20 µM) is -4.2% (inactive).
Turning to `COc1ccccc1C(=O)NC(CCSC)C(=O)NC1CCCCCC1` (stereo not given), the inhibition by setting is: (EGFP decrease, at 10 µM) 17.2%; (at 20 µM) 29.7% (inactive).
As to `CC(=O)CC(=O)NC(=NC1CCCCC1)Nc1nc(C)cc(C)n1`, the inhibition was 14.7% (EGFP decrease, at 10 µM) and 5.7% (inactive) (at 20 µM).
The corresponding values for `O=c1c2ccccc2nc(-c2ccccc2)n1-c1ccncc1` are -29.4% and 24.7% (inactive).
`Cc1cc(NC(=O)CSCC(=O)OCc2nnc(-c3ccccc3)o2)no1`: the inhibition (EGFP decrease, at 10 µM) was -7.9% and the inhibition (at 20 µM) is -12.8% (inactive).
Turning to `COCCN(CC(=O)NC1CCCCC1)C(=O)CSc1nc2ccccc2o1`, the inhibition was 7.4% (EGFP decrease, at 10 µM) and 28.7% (inactive) (at 20 µM).
For `Cc1c(NC(=O)CN2C(=O)NC3(CCC(C)CC3)C2=O)c(=O)n(-c2ccccc2)n1C` (stereo not given), the inhibition (EGFP decrease, at 10 µM) is 5.2% and the inhibition (at 20 µM) is 0.8% (inactive).
On to `COc1ccc(-n2ncc3c(SCC(=O)N4CCN(c5ccccc5OC)CC4)ncnc32)cc1`, for which the inhibition by setting is: (EGFP decrease, at 10 µM) 17.1%; (at 20 µM) 9.4% (inactive).
On to `O=C(Cn1c(=O)[nH]c2ccccc2c1=O)N1CCN(c2cccc(Cl)c2)CC1`, for which the inhibition by setting is: (EGFP decrease, at 10 µM) 17.8%; (at 20 µM) 20.5% (inactive).
With `O=C1NC(Cc2c[nH]c3ccccc23)C(=O)N1CCOc1ccc(F)cc1` (stereo not given), the inhibition (EGFP decrease, at 10 µM) was 11.9% and the inhibition (at 20 µM) was 9.1% (inactive).
Turning to `CC(OC(=O)C1CSC2(c3ccc(F)cc3)CCC(=O)N12)C(=O)NC(N)=O` (stereo not given), the inhibition runs as follows: (EGFP decrease, at 10 µM) 48.2%; (at 20 µM) -5.1% (inactive).
Turning to `O=C(CCCOc1ccccc1)Nc1nncs1`, the inhibition (EGFP decrease, at 10 µM) is -15.9% and the inhibition (at 20 µM) was 22.7% (inactive).
As to `CC(OC(=O)c1cccc(-n2cnnn2)c1)C(=O)N(C)c1ccccc1` (stereo not given), the inhibition (EGFP decrease, at 10 µM) is 23.3% and the inhibition (at 20 µM) is 6% (inactive).
`CCCNC(=O)c1ccc2c(=O)c(O)c(-c3cccc(Br)c3)[nH]c2c1`: the inhibition by setting is: (EGFP decrease, at 10 µM) -14.1%; (at 20 µM) -14.4% (inactive).
The corresponding values for `Cc1ccc(SCC(=O)N(C)C2CCS(=O)(=O)C2)cc1` (stereo not given) are 17.7% and 28.3% (inactive).
For `COC(=O)c1cc(NC(=O)CSc2nc(C)cc(=O)[nH]2)cc(C(=O)OC)c1`, the inhibition by setting is: (EGFP decrease, at 10 µM) 9.8%; (at 20 µM) 23.4% (inactive).
`O=C(Nc1ccc(N2CCOCC2)c(Cl)c1)c1ccc(-n2cnnc2)cc1`: the inhibition was 15.2% (EGFP decrease, at 10 µM) and 4.8% (inactive) (at 20 µM).
Regarding `CCOC(=O)CSc1nc2ccccc2c(=O)n1CCCCCC(=O)NCc1ccco1`, the inhibition is 8.4% (EGFP decrease, at 10 µM) and 5.8% (inactive) (at 20 µM).
The corresponding values for `COc1ccc(N2CCN(C(=O)CNS(=O)(=O)c3ccc(Br)s3)CC2)cc1` are 31% and 28.5% (inactive).
For `CCC1(C)Cc2c(c(=O)n(-c3ccccc3)c3ncnc(N)c23)CO1` (stereo not given) the same measures were 4.6% and -38.9% (inactive).
Regarding `c1ccc2c3nnc4n(c-3nc2c1)CCCS4`, the inhibition runs as follows: (EGFP decrease, at 10 µM) 17.5%; (at 20 µM) 23.7% (inactive).
`CCOC(=O)c1oc2ccccc2c1N`: the inhibition runs as follows: (EGFP decrease, at 10 µM) 12.3%; (at 20 µM) 19.4% (inactive).
For `CN(Cc1ccco1)C(=O)C1CCC(=O)N(CCc2cccc(F)c2)C1` (stereo not given), the inhibition is, setting by setting: (EGFP decrease, at 10 µM) 5.1%; (at 20 µM) 1.2% (inactive).
Regarding `Cc1ccccc1-n1ncc2c1CC(C)(C)CC2NC(=O)CCN1CCCCC1=O` (stereo not given), the inhibition is, setting by setting: (EGFP decrease, at 10 µM) -9.2%; (at 20 µM) 12.3% (inactive).
As to `COc1cccc(NC(=O)N2CCC(NC(=O)C3CCCCC3)CC2)c1`, the inhibition is, setting by setting: (EGFP decrease, at 10 µM) 13.5%; (at 20 µM) 8% (inactive).
For `O=C(COC(=O)c1cnccn1)c1ccc(OC(=O)c2ccccc2)cc1` the same measures were 21% and 17% (inactive).
For `O=c1nc2n(c3ccc([N+](=O)[O-])cc13)CCCCC2` the same measures were 39% and 29.5% (inactive).
The corresponding values for `CCCC(=O)c1c[nH]c(C(=O)NCCc2ccccn2)c1` are 20.5% and 29.1% (inactive).
Take `CC(C)c1ccc(/C=N/NC(=O)c2cccc(Cl)c2)cc1`: the inhibition reads like this: (EGFP decrease, at 10 µM) 16.9%; (at 20 µM) 44.6%.
The corresponding values for `Cc1ccc(N2C(=O)N(CC(=O)Nc3ccc(C)cc3C)C(=O)C2C)cc1` (stereo not given) are 28.1% and 22% (inactive).
Turning to `S=C(NNC(=S)Nc1ccccc1)Nc1ccccc1`, the inhibition (EGFP decrease, at 10 µM) was -6.9% and the inhibition (at 20 µM) was 16.7% (inactive).
Turning to `O=S(=O)(Nc1cc(Sc2ncn[nH]2)c(O)c2ccccc12)c1ccccc1`, the inhibition was 38.3% (EGFP decrease, at 10 µM) and 2.2% (inactive) (at 20 µM).
`CCC1=C(OC(=O)N(CC)CC)N2C(=O)OC(=NCC3CC3)[C@]2(C)[C@H]2C1=CC[C@H]1C(=O)N(CC)C(=O)[C@H]12`: the inhibition is -7.5% (EGFP decrease, at 10 µM) and -27.5% (inactive) (at 20 µM).
On to `Cc1nc2cc3ccccc3cc2c(=O)[nH]1`, for which the inhibition is 12.2% (EGFP decrease, at 10 µM) and 3.3% (inactive) (at 20 µM).
With `N#CCSCC(=O)Nc1ccc(F)cc1`, the inhibition by setting is: (EGFP decrease, at 10 µM) 4.7%; (at 20 µM) 4% (inactive).
The corresponding values for `COc1ccc(OC)c(Nc2cc(C)c3ccccc3n2)c1` are 13.3% and 5.4% (inactive).
For `CCOCCCNC(=O)c1cc2c(=O)n3cccc(C)c3nc2s1`, the inhibition by setting is: (EGFP decrease, at 10 µM) -2.1%; (at 20 µM) 12.9% (inactive).
On to `Cc1ccc(NC(=S)NC(NC(=O)c2ccco2)C(Cl)(Cl)Cl)cc1` (stereo not given), for which the inhibition reads like this: (EGFP decrease, at 10 µM) 6.3%; (at 20 µM) 31.9%.
For `O=C(CC12CC3CC(CC(C3)C1)C2)NCCN1CCOCC1` the same measures were 9.3% and 25.4% (inactive).
In the case of `Cc1ccc2nc(-c3ccc(S(=O)(=O)N4CCOCC4)cc3)cn2c1`, the inhibition (EGFP decrease, at 10 µM) turned out to be 14.7% and the inhibition (at 20 µM) is 6.1% (inactive).
The corresponding values for `C(=N\NC1=Nc2cccc3cccc1c23)/c1ccccn1` are 10.2% and 12% (inactive).
The corresponding values for `COc1ccc(CNCCCSc2ncccn2)c(OC)c1` are 11.1% and 16.3% (inactive).
For `O=C(O)c1cccc(NC(=O)C2C3C=CC(C3)C2C(=O)O)c1` (stereo not given), the inhibition (EGFP decrease, at 10 µM) came to 17.4% and the inhibition (at 20 µM) was 18% (inactive).
Turning to `Cc1ccc(S(=O)(=O)N(C)c2ccc(C(=O)NCc3cccnc3)cc2)cc1`, the inhibition is -13.7% (EGFP decrease, at 10 µM) and -8.4% (inactive) (at 20 µM).
Turning to `CCCCN(CC)C(=O)c1cc2cc3ccc(OC)cc3nc2o1`, the inhibition is, setting by setting: (EGFP decrease, at 10 µM) 23.8%; (at 20 µM) 25.6% (inactive).
Take `COC(=O)Cn1cc(C(=O)c2cccs2)c2ccccc21`: the inhibition runs as follows: (EGFP decrease, at 10 µM) 27.1%; (at 20 µM) 14.5% (inactive).
The corresponding values for `CCOC(=O)N1CCC(NC(=O)Cn2nc(-c3ccccc3)ccc2=O)CC1` are 1.1% and 24.5% (inactive).
With `Cc1nc(-c2ccc(C(=O)Nc3cccc(F)c3)cc2)cs1`, the inhibition (EGFP decrease, at 10 µM) stood at 30.7% and the inhibition (at 20 µM) is 32.8%.
The corresponding values for `CC(=O)c1cccc(N2Cc3ccccc3C2=NC(=O)CCl)c1` are 13.9% and 7.4% (inactive).
As to `Cc1cc(C)n2nc(SCC(=O)c3ccccc3)nc2n1`, the inhibition is 23.7% (EGFP decrease, at 10 µM) and 31% (at 20 µM).
With `C[C@H](NC(=O)C1CCC(CNC(=O)[C@@H]2CCCN2C(=O)OC(C)(C)C)CC1)C(=O)O` (stereo not given in full), the inhibition (EGFP decrease, at 10 µM) was determined as 26.7% and the inhibition (at 20 µM) is 20.8% (inactive).
As to `Nc1ncnc2c1ncn2[C@H]1C[C@H](O)[C@@H](CO)O1`, the inhibition is 1.2% (EGFP decrease, at 10 µM) and 26.2% (inactive) (at 20 µM).
Take `CC(=O)c1c(N2CCN(Cc3ccc4c(c3)OCO4)CC2)nc(=S)n(-c2ccccc2)c1C`: the inhibition is 7.3% (EGFP decrease, at 10 µM) and 23.7% (inactive) (at 20 µM).
For the compound `CCc1ccc(NC(=O)CCn2c(=O)oc3ccccc32)cc1`, the inhibition is, setting by setting: (EGFP decrease, at 10 µM) 11.9%; (at 20 µM) 3.3% (inactive).
On to `O=c1ccn(Cc2ccccc2Cl)cc1`, for which the inhibition is 33.3% (EGFP decrease, at 10 µM) and 14.1% (inactive) (at 20 µM).
Regarding `O=C(c1ccccc1)N1CCCC(c2nc3c(nnn3Cc3ccccc3)c(=O)[nH]2)C1` (stereo not given), the inhibition (EGFP decrease, at 10 µM) came out at 32.3% and the inhibition (at 20 µM) is 16.2% (inactive).
`CC(=O)N1[C@H](Cc2ccccc2)C=C[C@]1(C)C(=O)NCc1ccccn1`: the inhibition by setting is: (EGFP decrease, at 10 µM) -7.6%; (at 20 µM) 8.7% (inactive).
Consider `O=C(O)c1ccc(NC2=C/C(=N/S(=O)(=O)c3ccccc3)c3ccccc3C2=O)cc1`, for which the inhibition is, setting by setting: (EGFP decrease, at 10 µM) 38.1%; (at 20 µM) 41.2%.
Regarding `CCCC(=O)Nn1cnc2c(c1=O)C1(CCCCC1)Cc1ccccc1-2`, the inhibition runs as follows: (EGFP decrease, at 10 µM) -8.7%; (at 20 µM) 4% (inactive).
In the case of `CC(Oc1ccc(F)cc1)C(=O)/C=C\N(C)C` (stereo not given), the inhibition reads like this: (EGFP decrease, at 10 µM) 8.4%; (at 20 µM) 0% (inactive).
As for `COc1ccc(CCNC(=O)c2ccncc2)cc1OC`, the inhibition was -3.3% (EGFP decrease, at 10 µM) and 20.8% (inactive) (at 20 µM).
On to `COc1cccc2[nH]c(C(=O)NCCc3ccccc3)cc12`, for which the inhibition (EGFP decrease, at 10 µM) was 4.4% and the inhibition (at 20 µM) is 17.4% (inactive).
For the compound `CCC1CCCCN1C(=O)NC(=O)c1ccccc1` (stereo not given), the inhibition is 14.3% (EGFP decrease, at 10 µM) and 5.4% (inactive) (at 20 µM).
`O=C(O)C(O)Cc1c[nH]c2ccccc12` (stereo not given): the inhibition reads like this: (EGFP decrease, at 10 µM) 23.8%; (at 20 µM) 19.1% (inactive).
For `CCOc1ccccc1N1CCN(C(=O)c2cc(-c3cc(OC)ccc3OC)nc3ccccc23)CC1`, the inhibition was 20.9% (EGFP decrease, at 10 µM) and 24.9% (inactive) (at 20 µM).
